Measured values: ChEMBL document CHEMBL1201862, “PubChem BioAssay data set” (2004)
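Briefly, cells in 96-well plates were exposed to five compound concentrations for 48 h, and endpoints were estimated by linear interpolation. GI50 = concentration required for 50% inhibition of growth.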 Calls of active or inactive are those of the source. No stated cut-off is given here; in the data, active = GI50 up to about 1.1 µM and inactive = higher.

Assays:
Assay in all cases: NCI tumour cell line growth inhibition, 48 h
786-0 = system: 786-0
KM12 = system: KM12
KM-20L2 = system: KM-20L2
RXF 393 = system: RXF 393
BT-549 = system: BT-549
NCI-H23 = system: NCI-H23
T47D = system: T47D
MOLT-4 = system: MOLT-4
SF-268 = system: SF-268
NCI/ADR-RES = system: NCI/ADR-RES
PC-3 = system: PC-3
SK-OV-3 = system: SK-OV-3
COLO 205 = system: COLO 205
ACHN = system: ACHN
CCRF-CEM = system: CCRF-CEM
HT-29 = system: HT-29
HCT-15 = system: HCT-15
HCC 2998 = system: HCC 2998
HL-60 = system: HL-60
SR = system: SR

SMILES	GI50 (786-0)	GI50 (KM12)	GI50 (KM-20L2)	GI50 (RXF 393)	GI50 (BT-549)	GI50 (NCI-H23)	GI50 (T47D)	GI50 (MOLT-4)	GI50 (SF-268)	GI50 (NCI/ADR-RES)	GI50 (PC-3)	GI50 (SK-OV-3)	GI50 (COLO 205)	GI50 (ACHN)	GI50 (CCRF-CEM)	GI50 (HT-29)	GI50 (HCT-15)	GI50 (HCC 2998)	GI50 (HL-60)	GI50 (SR)
C=C(C)c1nc(Oc2ccccc2)nc(Oc2ccccc2)n1	4.58 µM (inactive)	3.09 µM (inactive)	9.98 µM (inactive)	2.4 µM (inactive)	3.32 µM (inactive)	6.64 µM (inactive)	5.36 µM (inactive)	0.664 µM (active)	4.79 µM (inactive)	10.9 µM (inactive)	14.6 µM (inactive)	17.6 µM (inactive)	5.42 µM (inactive)	8.63 µM (inactive)	2.54 µM (inactive)	3.99 µM (inactive)	2.81 µM	3.99 µM (inactive)	2.06 µM (inactive)	2.86 µM (inactive)
Cc1cc(N(CCC#N)S(=O)(=O)c2ccccc2)ccc1/C=N/c1ccc(C(=O)O)cc1	5.45 µM (inactive)	20.4 µM (inactive)	9.82 µM (inactive)	1.7 µM (inactive)	> 100 µM (inactive)	16.1 µM (inactive)	> 100 µM (inactive)	6.98 µM (inactive)	> 41 µM (inactive)	–	> 100 µM (inactive)	34.1 µM (inactive)	6.41 µM (inactive)	–	6.4 µM (inactive)	15.7 µM (inactive)	7.53 µM	16.8 µM (inactive)	5.21 µM (inactive)	–
OC[C@H]1O[C@@H](n2cnc3cncnc32)[C@H](O)[C@@H]1O [NEBULARINE]	–	1.01 µM (active)	1.04 µM (active)	1.31 µM (inactive)	–	1.75 µM (inactive)	–	1.26 µM (inactive)	1.09 µM (active)	0.69 µM (active)	–	0.953 µM (active)	0.417 µM (active)	–	1.32 µM (inactive)	0.377 µM (active)	0.692 µM	0.989 µM (active)	0.326 µM (active)	–
O=P1(NCCCl)OCCC(OO)N1CCCl (configuration not stated)	26.1 µM (inactive)	> 100 µM (inactive)	> 100 µM (inactive)	17.8 µM (inactive)	39.5 µM (inactive)	28.4 µM (inactive)	0.316 µM (active)	> 36.9 µM (inactive)	35.2 µM (inactive)	28.7 µM (inactive)	68.5 µM (inactive)	> 94 µM (inactive)	33.1 µM (inactive)	14.4 µM (inactive)	9.44 µM (inactive)	36.6 µM (inactive)	18 µM	> 100 µM (inactive)	6.82 µM (inactive)	> 100 µM (inactive)
CC(=O)OC1CCC2(C)C(CCC3C2CCC2(C)C(c4ccc(=O)oc4)C(OC(C)=O)CC32O)C1 (configuration not stated)	–	0.0172 µM (active)	0.0188 µM (active)	0.0125 µM (active)	–	0.0154 µM (active)	–	0.0163 µM (active)	0.0144 µM (active)	0.0191 µM (active)	–	0.0292 µM (active)	0.0288 µM (active)	–	0.0151 µM (active)	0.0263 µM (active)	0.0136 µM	0.0269 µM (active)	0.0154 µM (active)	–
O=C1/C(=C/c2ccc(Cl)cc2)CCC1CN1CCOCC1 (configuration not stated)	2.48 µM (inactive)	3.33 µM (inactive)	10.7 µM (inactive)	3.76 µM (inactive)	11.3 µM (inactive)	9.14 µM (inactive)	0.678 µM (active)	1.12 µM (inactive)	14.3 µM (inactive)	4.88 µM (inactive)	6.19 µM (inactive)	18 µM (inactive)	7.8 µM (inactive)	11.2 µM (inactive)	1.13 µM (inactive)	7.03 µM (inactive)	3.83 µM	9.75 µM (inactive)	0.836 µM (active)	0.687 µM (active)
O=C1C=CC(=C(c2ccc(O)cc2)c2ccc(O)cc2)C=C1 [AURIN]	13.6 µM (inactive)	12.8 µM (inactive)	16.5 µM (inactive)	5.07 µM (inactive)	–	8.57 µM (inactive)	–	4.71 µM (inactive)	13.2 µM (inactive)	–	–	17.9 µM (inactive)	17.7 µM (inactive)	15.2 µM (inactive)	2.39 µM (inactive)	18.6 µM (inactive)	14.4 µM	14.4 µM (inactive)	2.86 µM (inactive)	2.36 µM (inactive)
COc1ccc(OC(=O)CC2Cc3cc(OC)c(OC)c(OC)c3-c3ccc(SC)c(=O)cc32)cc1 (configuration not stated)	0.0551 µM (active)	0.107 µM (active)	0.169 µM (active)	0.115 µM (active)	–	0.421 µM (active)	–	0.387 µM (active)	2.74 µM (inactive)	–	–	0.0277 µM (active)	0.403 µM (active)	0.792 µM (active)	0.184 µM (active)	0.342 µM (active)	0.467 µM	0.0568 µM (active)	0.0893 µM (active)	0.463 µM (active)
C=C(CN(C)C)C(=O)c1ccc(OC)cc1	1.72 µM (inactive)	14.5 µM (inactive)	5.13 µM (inactive)	10 µM (inactive)	6.56 µM (inactive)	7.4 µM (inactive)	0.881 µM (active)	0.52 µM (active)	6.05 µM (inactive)	8.32 µM (inactive)	15.2 µM (inactive)	24.7 µM (inactive)	0.326 µM (active)	1.12 µM (active)	0.186 µM (active)	5.71 µM (inactive)	1.76 µM	14.2 µM (inactive)	0.198 µM (active)	1.05 µM (active)
